Experimental findings from patent US9850205B2, “Stable apremilast crystalline form II free of solvate and method of making the same” (UTOPHARM (SHANGHAI) CO., LTD, priority 2015, dated 2017) are described below.

The nature of data set [1]: Influence factors (stability) experiments of Form I, Form II and Form B. The format is physicochemical. An excerpt: 2. Influence factors experiments of Form I, Form II and Form B:
In addition, the same batch of raw materials was crystallized in acetone/ethyl alcohol to produce Form B and crystallized in acetone/water to produce Form I and Form II, then compare the appearance and color of the products.

A short description of data set [2]: Thermostability experiments: forms suspended in water and stirred at 60 and 100° C. The format is physicochemical. Particulars: for increased amount of related substance, N-deacetylates: stirred in water at 100° C. for 48 h; for electrostatic effect: suspended in water at 100° C., stirred 24 h, filtered and dried; for DSC / X-ray powder diffraction (change) / melting temperature (change) / X-ray powder diffraction pattern (change): suspended in water; for melting temperature (change): numbers are decreases. How it is done:
Apremilast Crystalline Form II and Form B were suspended in water and stirred for 24-48 h under 60 and 100° C., respectively, then cooled, filtered, and dried, and X-ray powder diffraction patterns, DSC patterns, melting temperature and related substance were determined (see Table 4).
Apremilast Crystalline Form II and Form B were suspended in water, respectively, stirred at 60-100° C. for 48 h sampled at a certain time interval and filtered, dried to determine the change of melting temperature; sampled at 24 h, 48 h, filtered and dried to determine change of XRPD patterns, DSC patterns, melting temperature, electrostatic effects, and related substances.

Data set [3] is described as follows: Electrostatic effect under the same micronization condition. The format is physicochemical. An excerpt:
Large electrostatic effect will adversely affect the preparation processing.

The nature of data set [4]: Solubility of Form II and Form B in common solvents. The format is physicochemical. Particulars: acetone, butanone, ethyl alcohol, methanol, ethyl acetate, acetonitrile, dichloromethane, tetrahydrofuran, petroleum ether, n-hexane, water. The protocol:
The solubility of Form II and Form B in common solvents such as acetone, butanone, ethyl alcohol, methanol, ethyl acetate, acetonitrile, dichloromethane, tetrahydrofuran, petroleum ether, n-hexane, water was tested and compared.

Data set [5] in a line: In vivo pharmacokinetic comparison study in SD rats (gavage, LC-MS/MS plasma concentration). The settings on record: for AUC(0-t) / Cmax / Tmax: SD (Sprague-Dawley), rat, plasma, po, gavage 10 mg/kg suspension; for AUC(0-t): read-out: area under the curve AUC0-t; for Cmax: read-out: peak concentrations Cmax; for Tmax: 10 mg/kg. The protocol: Twelve SD rats weight 200-220 g with half males and half females were divided randomly into 2 groups (named as group A and group B).
According to the administration route and dosage amounts provided in FDA references, the two crystalline forms were given by gavage to investigate their pharmacokinetic behaviors in rats. The dosage amounts of the two forms are both 10 mg/kg (solvent is 1% carboxymethylcellulose). The rats were fasted for 12 hs before the study, food was provided 4 hs after administration, water deprivation was not required during the whole study. • Blood was collected via the fundus venous plexus 10, 30mins, 1, 2, 4, 6, 8, 10, 12 and 24 hs after administration. The collected blood was placed on ice and centrifuged for 5min at 8000 rpm, plasma was separated, and cryoperserved in a −20° C. refrigerator. LC-MS/MS was used to determine the concentration of APST in plasma. Linearity range of APST in plasma is 2-1000ng/ml, the linearity was good.

Data set [6] is described as follows: Comparison of pharmacokinetics in Beagle dogs (oral capsule of crude drug powder, LC-MS/MS plasma concentration). The format is in vivo. Particulars: both sexes, dog, 30 mg crude drug powder capsule, single period. The protocol: 6 healthy Beagle dogs weight 6-8 kg with half males and half females were divided randomly into 2 groups, each group having 3.
According to the administration route and dosage amounts, medicine is administrated orally and the dosage is 30 mg/dog/time. After crude drug powder of two crystal forms being weighed about 30 mg respectively, capsule shell is used to be filled and 10 ml water is used accompanied with administration. The Beagle dogs were fasted for 12 hours before the study, and food is provided in 4 hours after administration. Water deprivation was not required during the whole study. Specific administration groups are designed in the table as below.
0.5ml venous blood was collected via the small saphenous veins 10, 30 min, 1, 2, 4, 6, 8, 10, 12, 24, 48 and 72 h before (0 hour) or after administration. After centrifugation for 5 minutes at 8000 rpm, blood plasma is separated out and placed in anti freezing plastic test tube for storing in refrigerator at −20 C temporarily.
Concentration of APST in blood plasma is tested by LC-MS/MS method. The linearity range of APST testing is 5 to 5000 ng/ml, and the linear is good.

Data set [7] in a line: Crystalline form conversion study, suspension in acetone/water at reflux. The format is physicochemical. Particulars: suspended in acetone/water (1:3), refluxing temperature; Form B 36 h, Form D 8-10 h. The protocol: In addition, pure Form II can obtained by suspending crashed Forms A, B, C, D, E, F and/or G in acetone/water and stirring at 50° C. to refluxing temperature for 1-48 h.
Apremilast Crystalline Form B (5.0 g, particle size less than 300 mesh) was suspended in 60 ml acetone/water (1:3), heated to refluxing temperature and stirred for 36 h, then cooled while stirring, filtered, dried at 60° C. to obtain about 4.88 g of Apremilast Crystalline Form II, mp:148.3-150.3° C.
Apremilast Crystalline Form D (5.0 g, particle size less than 200mesh) was suspended in 60m1 acetone/water (1:3), heated to refluxing temperature and stirred for 8-10 h, then cooled while stirring, filtered, dried at 60° C. to obtain about 4.60 g of Apremilast Crystalline Form II, mp:148.3-150.5° C.

Where [8] appears, read: both sexes, SD rats, males and females together, read-out: time to peak Tmax.
The mark [9] stands for this setting: both sexes, SD rats, males and females together, read-out: time to peak Tmax (median).
The mark [10] stands for this setting: both sexes, SD rats, males and females together.
Where [11] appears, read: female, female rats, read-out: time to peak Tmax.
Where [12] appears, read: female, female rats, read-out: time to peak Tmax (median).
Where [13] appears, read: male, male rats, read-out: time to peak Tmax.
Setting [14] is: male, male rats, read-out: time to peak Tmax (median).

What is called Tmax is the time at which the peak concentration occurs. One may read the AUC(0-inf) as total exposure, with the tail of the curve extrapolated. A high value points to more exposure. As to `CCOc1cc(C(CS(C)(=O)=O)N2C(=O)c3cccc(NC(C)=O)c3C2=O)ccc1OC` (single isomer, unassigned; (+)) [Form II, (+)-2-[1-(3-ethoxy-4-methoxyphenyl)-2-methylsulfonylethyl]-4-acetylaminoisoindoline-1,3-dione], in data set [1], the “stability under high temperature and high humidity conditions” value (“stability” for short) is reported as “stable”; the “Change of related substance/high temperature for 10 days” value was “Essentially no”; the “moisture absorption/humidity 92.5% Change of related substances” value is “essentially no”; the “moisture absorption/humidity 92.5% weight gain” value is on record as below 1.0%. In addition, the “Change of related substances/light exposure for 10 days” value in data set [1] is recorded as “essentially no”. Further, in data set [2], the “increased amount of related substance, N-deacetylates” value is recorded as 0.046% and the electrostatic effect entry is listed as “essentially no electrostatic effect”. In data set [2] (60° C., 48 h), the DSC was 150 °C, the “X-ray powder diffraction (change)” value is “essentially no” and the “melting temperature (change)” value is given as “essentially no”. In data set [2] (100° C., 24~48 h), the DSC is 150 °C, the “X-ray powder diffraction pattern (change)” value was “essentially no” and the “melting temperature (change)” value is “essentially no”. Also, the electrostatic effect entry in data set [3] is “weak or no electrostatic effect”. In addition, the “solubility, Form II compared with Form B” value in data set [4] is on record as “essentially no difference”. Moreover, in data set [5] (female rats), the AUC(0-t) was found to be 10600 ± 1050 ng·h/mL and the Cmax was determined as 906 ± 179 ng/mL. In addition, in data set [5] (male rats), the AUC(0-t) came out at 446 ± 81.2 ng·h/mL and the Cmax was found to be 108 ± 16.1 ng/mL. Moreover, the Tmax in data set [5] (setting [8]) lay in the range of 1 to 6 h. For the same molecule, in data set [5] (setting [9]), the time of peak concentration (Tmax) was 3 h. For the same molecule, in data set [5] (setting [10]), the AUC(0-t) came to 5530 ± 5610 ng·h/mL and the Cmax was found to be 507 ± 452 ng/mL. For the same molecule, the “exposure of Form II relative to the exposure of Form B” value in data set [5] (female SD rats) is 1.5 times. Also, the time to peak (Tmax) in data set [5] (setting [11]) is 4 to 6 h. The Tmax in data set [5] (setting [12]) came to 6 h. Moreover, the Tmax in data set [5] (setting [13]) lay in the range of 1 to 2 h. Also, the Tmax in data set [5] (setting [14]) was 1 h. In data set [6], the area under the curve AUC(0-inf) turned out to be 38200 ± 13000 ng·h/mL, the AUC(0-t) was found to be 37700 ± 22400 ng·h/mL, the Cmax stood at 2050 ± 357 ng/mL and the time to peak (Tmax) amounted to 9 ± 13 h.
For `CCOc1cc([C@@H](CS(C)(=O)=O)N2C(=O)c3cccc(NC(C)=O)c3C2=O)ccc1OC` [Form B, (+)-2-[1-(3-ethoxy-4-methoxyphenyl)-2-methylsulfonylethyl]-4-acetylaminoisoindoline-1,3-dione], the “stability” value in data set [1] is on record as “stable”. In data set [1], the “moisture absorption/humidity 92.5% weight gain” value was below 1.0%. Besides, the “increased amount of related substance, N-deacetylates” value in data set [2] amounted to 0.059%. Besides, the electrostatic effect entry in data set [2] is on record as “serious electrostatic effect”; in data set [3], “higher electrostatic effect”. In data set [2] (60° C., 48 h), this molecule had a DSC of 157 °C. Moreover, the “X-ray powder diffraction (change)” value in data set [2] (60° C., 48 h) is reported as “weak”. The “melting temperature (change)” value in data set [2] (60° C., 48 h) is “Decreased 2-3 °C”; in data set [2] (100° C., 24~48 h), “Decreased 3-4 °C”. In data set [2] (100° C., 24~48 h), the “X-ray powder diffraction pattern (change)” value is “Weak absorption”. Moreover, in data set [4], the “solubility, Form II compared with Form B” value is recorded as “essentially no difference”. In addition, the “conversion of crystalline form (XRPD pattern and DSC pattern)” value in data set [7] is recorded as “complete conversion to Form II”. Moreover, the AUC(0-t) in data set [5] (female rats) was determined as 7000 ± 1140 ng·h/mL; in data set [5] (male rats), 530 ± 70 ng·h/mL; in data set [5] (setting [10]), 3770 ± 3620 ng·h/mL; in data set [6] it was 38000 ± 20500 ng·h/mL. Further, the Cmax in data set [5] (female rats) was 904 ± 28.5 ng/mL; in data set [5] (male rats) it was 142 ± 14 ng/mL; in data set [5] (setting [10]), 523 ± 417 ng/mL; in data set [6], 2410 ± 377 ng/mL. The “exposure of APST-B as percentage of the exposure of APST-II” value in data set [5] (SD rats, males and females together, gavage 10 mg/kg) is recorded as “about 68.07%”. The Tmax is 1.6 h in data set [5] (setting [8]); 2.5 h in data set [5] (setting [9]); 2 to 6 h in data set [5] (setting [11]); 4 h in data set [5] (setting [12]); 1 h in data set [5] (setting [13]); 1 h in data set [5] (setting [14]). The Tmax in data set [6] worked out at 1.7 ± 0.6 h. Also, the “AUC0-t of APST-B as percentage of that of APST-II” value is reported as 65.9% in data set [5] (female rats, gavage 10 mg/kg) and around 119.0% in data set [5] (male rats, gavage 10 mg/kg). The “Cmax of APST-B as percentage of that of APST-II” value in data set [5] (male rats, gavage 10 mg/kg) is listed as “about 132.3%”. This molecule also gave an AUC(0-inf) in data set [6] of 38500 ± 20500 ng·h/mL.
`CCOc1cc([C@@H](CS(C)(=O)=O)N2C(=O)c3cccc(NC(C)=O)c3C2=O)ccc1OC` [Form I, (+)-2-[1-(3-ethoxy-4-methoxyphenyl)-2-methylsulfonylethyl]-4-acetylaminoisoindoline-1,3-dione]: in data set [1], the “stability” value was “stable”; the “Change of related substance/high temperature for 10 days” value is listed as “Essentially no”; the “moisture absorption/humidity 92.5% Change of related substances” value is listed as “essentially no”; the “Change of related substances/light exposure for 10 days” value was “essentially no”.
